Data on 21 compounds can be found in patent publication US10202360B2 (CELGENE QUANTICEL RESEARCH, INC., priority 2016, dated 2019).

pIC50: −log10 of the molar value.

The target in the test is CREBBP (Homo sapiens (Human), UniProt Q92793). Kind of test: In vitro enzyme inhibition assay - CREBBP inhibition (AlphaScreen, biotinylated H4-tetraacetyl peptide). Format: binding. The note with it: Table 28; AlphaScreen, H4-tetraacetyl peptide. The procedure: Determination of the IC50 for the CREBBP inhibitors disclosed herein was performed as follows: CREBBP was cloned and expressed in E. Coli as His-tag protein and purified by Nickel affinity and gel-filtration chromatography. […] CREBBP binding and inhibition was assessed by monitoring the interaction of biotinylated H4-tetraacetyl peptide (AnaSpec, H4K5/8/12/16(Ac), biotin-labeled) with the target using the AlphaScreen technology (Perkin Elmer). In a 384-well ProxiPlate CREBBP (50 nM final) was combined with peptide (20 nM final) in 50 mM HEPES (pH 7.3), 10 mM NaCl, 0.25 mM TCEP, 0.1% (w/v) BSA, and 0.005% (w/v) Brij-35 either in the presence of DMSO (final 0.4% DMSO) or compound dilution series in DMSO. After 20-minute incubation at room temperature, Alpha streptavidin donor beads and Nickel Chelate acceptor beads were added to a final concentration of 5 μg/mL. After two hours of equilibration, plates were read on an Envision instrument and the IC50 was calculated using a four parameter non-linear curve fit.
CREBBP, sequence (Q92793 1081-1197): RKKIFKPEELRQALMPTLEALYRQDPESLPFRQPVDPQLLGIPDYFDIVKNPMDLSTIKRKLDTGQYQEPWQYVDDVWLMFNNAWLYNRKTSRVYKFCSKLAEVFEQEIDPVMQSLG
The ability of the compounds disclosed herein to inhibit CBP activity was quantified and the respective IC50 value was determined.
(Alpha assays give light when donor and acceptor beads are brought close together.)
For `CCCCS(=O)(=O)Nc1cc(-c2ccc(=O)n(C)c2)nc(Oc2c(C)cc(Cl)cc2Cl)n1` [Example 32, Butane-1-sulfonic acid [2-(2,4-dichloro-6-methyl-phenoxy)-6-(1-methyl-6-oxo-1,6-dihydro-pyridin-3-yl)-pyrimidin-4-yl]-amide], the pIC50 (usually the IC50 on a negative log10 scale, so that one unit is a factor of ten) was above 6.30.
Compound `Cc1cc(Cl)cc(Cl)c1Oc1nc(NS(=O)(=O)C(C)C)cc(-c2ccc(=O)n(C)c2)n1` [Example 34, Propane-2-sulfonic acid [2-(2,4-dichloro-6-methyl-phenoxy)-6-(1-methyl-6-oxo-1,6-dihydro-pyridin-3-yl)-pyrimidin-4-yl]-amide] had a pIC50 above 6.30.
Turning to `CCCCS(=O)(=O)Nc1cc(-c2cc(C)c(=O)n(C)c2)nc(Oc2cc(OC)ccc2C#N)n1` [Example 35, Butane-1-sulfonic acid [2-(2-cyano-5-methoxy-phenoxy)-6-(1,5-dimethyl-6-oxo-1,6-dihydro-pyridin-3-yl)-pyrimidin-4-yl]-amide], the pIC50 was above 6.30.
Take `CCCCS(=O)(=O)Nc1cc(-c2cc(C)c(=O)n(C)c2)nc(Oc2cc(C)ccc2C#N)n1` [Example 36, Butane-1-sulfonic acid [2-(2-cyano-5-methyl-phenoxy)-6-(1,5-dimethyl-6-oxo-1,6-dihydro-pyridin-3-yl)-pyrimidin-4-yl]-amide]: the pIC50 is above 6.30.
As for `CCCCS(=O)(=O)Nc1cc(-c2cc(C)c(=O)n(C)c2)nc(Oc2ccccc2C#N)n1` [Example 37, Butane-1-sulfonic acid [2-(2-cyano-phenoxy)-6-(1,5-dimethyl-6-oxo-1,6-dihydro-pyridin-3-yl)-pyrimidin-4-yl]-amide], the pIC50 is above 6.30.
For `CCCCS(=O)(=O)Nc1cc(-c2cc(C)c(=O)n(C)c2)nc(Oc2cc(C(C)C)ccc2Cl)n1` [Example 38, Butane-1-sulfonic acid [2-(2-chloro-5-isopropyl-phenoxy)-6-(1,5-dimethyl-6-oxo-1,6-dihydro-pyridin-3-yl)-pyrimidin-4-yl]-amide], the pIC50 was above 6.30.
For the compound `CCCS(=O)(=O)Nc1cc(-c2cc(C)c(=O)n(C)c2)nc(Oc2cc(C(C)C)ccc2Cl)n1` [Example 39, Propane-1-sunnic acid [2-(2-chloro-5-isopropyl-phenoxy)-6-(1,5-dimethyl-6-oxo-1,6-dihydro-pyridin-3-yl)-pyrimidin-4-yl]-amide], the pIC50 was above 6.30.
With `Cc1cc(-c2cc(NS(=O)(=O)C(C)C)nc(Oc3cc(C(C)C)ccc3Cl)n2)cn(C)c1=O` [Example 40, Propane-2-sulfonic acid [2-(2-chloro-5-isopropyl-phenoxy)-6-(1,5-dimethyl-6-oxo-1,6-dihydro-pyridin-3-yl)-pyrimidin-4-yl]-amide] the figure was above 6.30.
Regarding `CCCS(=O)(=O)Nc1cc(-c2cc(C)c(=O)n(C)c2)nc(Oc2c(Cl)cccc2CC)n1` [Example 42, Propane-1-sulfonic acid [2-(2-chloro-6-ethyl-phenoxy)-6-(1,5-dimethyl-6-oxo-1,6-dihydro-pyridin-3-yl)-pyrimidin-4-yl]-amide], the pIC50 is above 6.30.
`CCc1cccc(Cl)c1Oc1nc(NS(=O)(=O)C(C)C)cc(-c2cc(C)c(=O)n(C)c2)n1` [Example 43, Propane-2-sulfonic acid [2-(2-chloro-6-ethyl-phenoxy)-6-(1,5-dimethyl-6-oxo-1,6-dihydro-pyridin-3-yl)-pyrimidin-4-yl]-amide]: the pIC50 was above 6.30.
With `CCn1cc(-c2cc(NS(=O)(=O)C(C)C)nc(Oc3ccc(F)cc3F)n2)cc(C)c1=O` [Example 44, Propane-2-sulfonic acid [2-(2,4-difluoro-phenoxy)-6-(1-ethyl-5-methyl-6-oxo-1,6-dihydro-pyridin-3-yl)-pyrimidin-4-yl]-amide], the pIC50 is above 6.30.
`CCCn1cc(-c2cc(NS(=O)(=O)C(C)C)nc(Oc3ccc(F)cc3F)n2)cc(C)c1=O` [Example 45, Propane-2-sulfonic acid [2-(2,4-difluoro-phenoxy)-6-(5-methyl-6-oxo-1-propyl-1,6-dihydro-pyridin-3-yl)-pyrimidin-4-yl]-amide]: the pIC50 is 5.30 to 6.30.
The figure for `CCCCn1cc(-c2cc(NS(=O)(=O)C(C)C)nc(Oc3ccc(F)cc3F)n2)cc(C)c1=O` [Example 46, Propane-2-sulfonic acid [6-(1-butyl-5-methyl-6-oxo-1,6-dihydro-pyridin-3-yl)-2-(2,4-difluoro-phenoxy)-pyrimidin-4-yl]-amide] is below 5.30; for `Cc1cc(-c2cc(NS(=O)(=O)C(C)C)nc(Oc3ccc(F)cc3F)n2)cn(C(C)C)c1=O` [Example 47, Propane-2-sulfonic acid [2-(2,4-difluoro-phenoxy)-6-(1-isopropyl-5-methyl-6-oxo-1,6-dihydro-pyridin-3-yl)-pyrimidin-4-yl]-amide] it is 5.30 to 6.30; for `Cc1cc(-c2cc(NS(=O)(=O)C(C)C)nc(Oc3ccc(F)cc3F)n2)cn(CC(C)C)c1=O` [Example 48, Propane-2-sulfonic acid [2-(2,4-difluoro-phenoxy)-6-(1-isobutyl-5-methyl-6-oxo-1,6-dihydro-pyridin-3-yl)-pyrimidin-4-yl]-amide] it is below 5.30.
Regarding `Cc1cc(-c2cc(NS(=O)(=O)C(C)C)nc(Oc3ccc(F)cc3F)n2)cn(CC2CC2)c1=O` [Example 49, Propane-2-sulfonic acid [6-(1-cyclopropylmethyl-5-methyl-6-oxo-1,6-dihydro-pyridin-3-yl)-2-(2,4-difluoro-phenoxy)-pyrimidin-4-yl]-amide], the pIC50 was above 6.30.
`Cc1cc(-c2cc(NS(=O)(=O)C(C)C)nc(Oc3ccc(F)cc3F)n2)cn(CC2CCC2)c1=O` [Example 50, Propane-2-sulfonic acid [6-(1-cyclobutylmethyl-5-methyl-6-oxo-1,6-dihydro-pyridin-3-yl)-2-(2,4-difluoro-phenoxy)-pyrimidin-4-yl]-amide] gave a pIC50 below 5.30.
In the case of `CC(=O)OCCn1cc(-c2cc(NS(=O)(=O)C(C)C)nc(Oc3ccc(F)cc3F)n2)cc(C)c1=O` [Example 51, Acetic acid 2-{5-[2-(2,4-difluoro-phenoxy)-6-(propane-2-sulfonylamino)-pyrimidin-4-yl]-3-methyl-2-oxo-2H-pyridin-1-yl}-ethyl ester], the pIC50 is 5.30 to 6.30.
With `Cc1cc(-c2cc(NS(=O)(=O)C(C)C)nc(Oc3ccc(F)cc3F)n2)cn(CC(F)(F)F)c1=O` [Example 52, Propane-2-sulfonic acid {2-(2,4-difluoro-phenoxy)-6-[5-methyl-6-oxo-1-(2,2,2-trifluoro-ethyl)-1,6-dihydro-pyridin-3-yl]-pyrimidin-4-yl}-amide] the figure was 5.30 to 6.30; with `COCCn1cc(-c2cc(NS(=O)(=O)C(C)C)nc(Oc3ccc(F)cc3F)n2)cc(C)c1=O` [Example 53, Propane-2-sulfonic acid {2-(2,4-difluoro-phenoxy)-6-[1-(2-methoxy-ethyl)-5-methyl-6-oxo-1,6-dihydro-pyridin-3-yl]-pyrimidin-4-yl}-amide], 5.30 to 6.30; with `CCCS(=O)(=O)Nc1cc(-c2cc(C)c(=O)n(C3CC3)c2)nc(Oc2c(C)cccc2C)n1` [Example 54, Propane-1-sulfonic acid [6-(1-cyclopropyl-5-methyl-6-oxo-1,6-dihydro-pyridin-3-yl)-2-(2,6-dimethyl-phenoxy)-pyrimidin-4-yl]-amide], 5.30 to 6.30.
